Experimental data reported in PubChem BioAssay (NCI).
“And” between values parts separate entries of the source, which are not always exact repeats. Equal entries are not always repeated.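 Assay format: 96-well plates, 48-hour exposure. GI50 is the concentration that inhibits growth by half. TGI marks complete inhibition of growth.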

Legend:
Assay in all cases: NCI-60 cell line screen, 48 h
EKVX NSCLC = tested on: EKVX NSCLC
PC-3 prostate = tested on: PC-3 prostate
CCRF-CEM leukemia = tested on: CCRF-CEM leukemia
RXF 393 renal = tested on: RXF 393 renal
NCI-H226 lung = tested on: NCI-H226 lung
SK-MEL-2 melanoma = tested on: SK-MEL-2 melanoma
HOP-92 NSCLC = tested on: HOP-92 NSCLC
NCI/ADR-RES ovarian = tested on: NCI/ADR-RES ovarian
DMS 114 small cell lung = tested on: DMS 114 small cell lung
DMS 273 small cell lung = tested on: DMS 273 small cell lung

COc1ccc2c(c1O)[C@@]13CCCC=C1[C@@H](C2)[N+](C)(C)CC3
TGI (EKVX NSCLC): > 100 µM
TGI (PC-3 prostate): > 100 µM
TGI (CCRF-CEM leukemia): > 100 µM
TGI (RXF 393 renal): > 100 µM
TGI (NCI-H226 lung): > 100 µM
TGI (SK-MEL-2 melanoma): > 100 µM
TGI (HOP-92 NSCLC): > 100 µM
TGI (NCI/ADR-RES ovarian): > 100 µM

N#CC1=C(N)NC(N2CCOCC2)=NC12Nc1ccccc1O2 (stereo not drawn)
GI50 (EKVX NSCLC): > 100 µM
TGI (EKVX NSCLC): > 100 µM
GI50 (PC-3 prostate): 31.8 µM
TGI (PC-3 prostate): > 100 µM
GI50 (CCRF-CEM leukemia): 44 µM
TGI (CCRF-CEM leukemia): > 100 µM
GI50 (RXF 393 renal): 61.5 µM
TGI (RXF 393 renal): > 100 µM
GI50 (NCI-H226 lung): 98.7 µM
TGI (NCI-H226 lung): > 100 µM
GI50 (SK-MEL-2 melanoma): 39.7 µM
TGI (SK-MEL-2 melanoma): > 100 µM
GI50 (HOP-92 NSCLC): > 100 µM
TGI (HOP-92 NSCLC): > 100 µM
GI50 (NCI/ADR-RES ovarian): 34.2 µM
TGI (NCI/ADR-RES ovarian): > 100 µM

COC(=O)/C(C#N)=C1\CCC(OC)N1C (stereo not drawn)
TGI (EKVX NSCLC): > 100 µM
TGI (CCRF-CEM leukemia): > 100 µM
TGI (RXF 393 renal): > 100 µM
TGI (DMS 114 small cell lung): > 100 µM
TGI (NCI-H226 lung): > 100 µM
TGI (SK-MEL-2 melanoma): > 100 µM
TGI (DMS 273 small cell lung): > 100 µM

O=S(=O)(/N=S(/Nc1ccccc1)C(F)(F)Cl)c1ccccc1 (stereo not drawn)
TGI (EKVX NSCLC): > 100 µM
TGI (PC-3 prostate): > 100 µM
TGI (CCRF-CEM leukemia): > 100 µM
TGI (RXF 393 renal): > 100 µM
TGI (NCI-H226 lung): > 100 µM
TGI (SK-MEL-2 melanoma): > 100 µM
TGI (HOP-92 NSCLC): > 100 µM
TGI (NCI/ADR-RES ovarian): > 100 µM

CCc1ccc2oc(=O)ccc2c1
TGI (EKVX NSCLC): > 100 µM
TGI (PC-3 prostate): > 100 µM
TGI (CCRF-CEM leukemia): > 100 µM
TGI (RXF 393 renal): > 100 µM
TGI (NCI-H226 lung): > 100 µM
TGI (SK-MEL-2 melanoma): > 100 µM
TGI (HOP-92 NSCLC): > 100 µM
TGI (NCI/ADR-RES ovarian): > 100 µM

CN1CCN(Cc2ccc(NC(=O)c3[nH]ncc3Nc3ncnc4[nH]ccc34)cc2)CC1
GI50 (EKVX NSCLC): 0.368 µM
TGI (EKVX NSCLC): 2.64 µM
GI50 (PC-3 prostate): 0.372 µM
TGI (PC-3 prostate): > 100 µM
GI50 (CCRF-CEM leukemia): 0.254 µM
TGI (CCRF-CEM leukemia): 5.68 µM
GI50 (RXF 393 renal): 0.199 µM
TGI (RXF 393 renal): 0.464 µM
GI50 (NCI-H226 lung): 0.205 µM
TGI (NCI-H226 lung): 1.87 µM
GI50 (SK-MEL-2 melanoma): 0.325 µM
TGI (SK-MEL-2 melanoma): 0.921 µM
GI50 (HOP-92 NSCLC): 0.431 µM
TGI (HOP-92 NSCLC): 0.741 µM
GI50 (NCI/ADR-RES ovarian): 7.16 µM
TGI (NCI/ADR-RES ovarian): > 100 µM

CCC(C)(O)c1cn(-c2ccc(Cl)cc2)nn1 (stereo not drawn)
TGI (EKVX NSCLC): > 100 µM
TGI (CCRF-CEM leukemia): > 100 µM
TGI (RXF 393 renal): > 100 µM
TGI (NCI-H226 lung): > 100 µM
TGI (SK-MEL-2 melanoma): > 100 µM
TGI (DMS 273 small cell lung): > 100 µM
TGI (HOP-92 NSCLC): > 100 µM

Cc1c(Nc2nccc3cc(CN4CC[C@@H](O)C4)cnc23)cccc1-c1cccc(-c2nc3cc(CN4CC[C@@H](C(=O)O)C4)cc(C#N)c3o2)c1C
GI50 (EKVX NSCLC): > 100 µM
TGI (EKVX NSCLC): > 100 µM
GI50 (PC-3 prostate): 4.17 µM
TGI (PC-3 prostate): > 100 µM
GI50 (CCRF-CEM leukemia): 3.2 µM
TGI (CCRF-CEM leukemia): > 100 µM
GI50 (RXF 393 renal): 2 µM
TGI (RXF 393 renal): 5.41 µM
GI50 (NCI-H226 lung): > 100 µM
TGI (NCI-H226 lung): > 100 µM
GI50 (SK-MEL-2 melanoma): > 100 µM
TGI (SK-MEL-2 melanoma): > 100 µM
GI50 (HOP-92 NSCLC): 2 µM
TGI (HOP-92 NSCLC): > 100 µM
GI50 (NCI/ADR-RES ovarian): 14.8 µM
TGI (NCI/ADR-RES ovarian): > 100 µM

O=C(O)c1c2c(cc3c(=O)c4ccccc4[nH]c13)CCCC2
TGI (EKVX NSCLC): > 100 µM
TGI (CCRF-CEM leukemia): > 100 µM
TGI (RXF 393 renal): > 100 µM
TGI (NCI-H226 lung): > 100 µM
TGI (SK-MEL-2 melanoma): > 100 µM
TGI (DMS 273 small cell lung): > 100 µM
TGI (HOP-92 NSCLC): > 100 µM

COc1cc2c(cc1OC)C(C(CBr)CBr)N(C1CCCC1)CC2 (stereo not drawn)
TGI (EKVX NSCLC): > 100 µM
TGI (CCRF-CEM leukemia): > 100 µM
TGI (RXF 393 renal): > 100 µM
TGI (NCI-H226 lung): > 100 µM
TGI (SK-MEL-2 melanoma): > 100 µM
TGI (DMS 273 small cell lung): > 100 µM
TGI (HOP-92 NSCLC): > 100 µM

O=C1OC(=O)C23CSCC12C1C=CC3O1 (stereo not drawn)
TGI (EKVX NSCLC): > 100 µM
TGI (CCRF-CEM leukemia): > 100 µM
TGI (RXF 393 renal): > 100 µM
TGI (DMS 114 small cell lung): > 100 µM
TGI (NCI-H226 lung): > 100 µM
TGI (SK-MEL-2 melanoma): > 100 µM
TGI (DMS 273 small cell lung): > 100 µM

CCCCC#Cc1c(I)n(C2OC(CO[Si](C)(C)C(C)(C)C)C3OC(C)(C)OC32)c(=O)n(C(=O)c2ccccc2)c1=O (stereo not drawn)
GI50 (EKVX NSCLC): 18.5 µM
TGI (EKVX NSCLC): 38.9 µM
GI50 (PC-3 prostate): 10.3 µM
TGI (PC-3 prostate): 22.9 µM
GI50 (CCRF-CEM leukemia): 13.4 µM
TGI (CCRF-CEM leukemia): 33.4 µM
GI50 (RXF 393 renal): 11 µM
TGI (RXF 393 renal): 23.9 µM
GI50 (NCI-H226 lung): 17.6 µM
TGI (NCI-H226 lung): 37.6 µM
GI50 (SK-MEL-2 melanoma): 2.09 µM
TGI (SK-MEL-2 melanoma): 4.75 µM
GI50 (HOP-92 NSCLC): 0.885 µM
TGI (HOP-92 NSCLC): 13.5 µM
GI50 (NCI/ADR-RES ovarian): 18.5 µM
TGI (NCI/ADR-RES ovarian): 49.3 µM

Cc1ccc2oc(=O)c3c(O)c4cccc(OC5OC(C)C6O[C@@H](c7ccccc7)OC6C5OC5OC(C)C(O)C(O)C5O)c4c4oc(=O)c1c2c34 (stereo partly drawn)
GI50 (EKVX NSCLC): 0.519 µM
TGI (EKVX NSCLC): 4.09 µM and 2.55 µM
TGI (PC-3 prostate): 1.4 µM
TGI (CCRF-CEM leukemia): 0.365 µM and 0.363 µM
TGI (RXF 393 renal): 0.763 µM
TGI (DMS 114 small cell lung): 3.16 µM
TGI (NCI-H226 lung): 0.211 µM
TGI (SK-MEL-2 melanoma): 1.68 µM
TGI (DMS 273 small cell lung): 1.09 µM
GI50 (HOP-92 NSCLC): 0.333 µM
TGI (HOP-92 NSCLC): 2.22 µM and 2.13 µM

Cc1ccccc1-n1c(=S)[nH]c2c(sc(=O)n2-c2ccccc2C)c1=O
TGI (EKVX NSCLC): > 100 µM
TGI (CCRF-CEM leukemia): > 100 µM
TGI (RXF 393 renal): > 100 µM
TGI (DMS 114 small cell lung): > 100 µM
TGI (NCI-H226 lung): > 100 µM
TGI (SK-MEL-2 melanoma): > 100 µM
TGI (DMS 273 small cell lung): > 100 µM
TGI (HOP-92 NSCLC): > 100 µM

CN1CCC(c2c(O)cc(O)c3c(=O)cc(-c4ccccc4Cl)oc23)C(O)C1 (stereo not drawn)
TGI (EKVX NSCLC): 0.135 µM
TGI (CCRF-CEM leukemia): 19.3 µM
TGI (RXF 393 renal): 0.0312 µM
TGI (DMS 114 small cell lung): 0.393 µM
TGI (NCI-H226 lung): 0.305 µM
TGI (HOP-92 NSCLC): 0.337 µM

CC(=O)c1c[nH]c2ccc(-c3ccnc(Nc4ccc(NC(=O)C5CCCC5)c(CN5CCOCC5)c4)n3)cc12
GI50 (EKVX NSCLC): 0.0382 µM
TGI (EKVX NSCLC): 0.457 µM
GI50 (PC-3 prostate): 0.0325 µM
TGI (PC-3 prostate): 1.05 µM
GI50 (CCRF-CEM leukemia): 0.0294 µM
GI50 (RXF 393 renal): 0.0114 µM
TGI (RXF 393 renal): 0.036 µM
GI50 (NCI-H226 lung): 0.0298 µM
TGI (NCI-H226 lung): 0.284 µM
GI50 (SK-MEL-2 melanoma): 0.0222 µM
TGI (SK-MEL-2 melanoma): 0.0585 µM
GI50 (HOP-92 NSCLC): 0.0284 µM
TGI (HOP-92 NSCLC): 0.365 µM
GI50 (NCI/ADR-RES ovarian): 0.306 µM
TGI (NCI/ADR-RES ovarian): 2.96 µM

CC1CCCC(C#N)(NOC2=NCCN2)C1 (stereo not drawn)
GI50 (EKVX NSCLC): 0.0758 µM
TGI (EKVX NSCLC): 28.2 µM
GI50 (PC-3 prostate): > 100 µM
TGI (PC-3 prostate): > 100 µM
GI50 (CCRF-CEM leukemia): 53.8 µM
TGI (CCRF-CEM leukemia): > 100 µM
GI50 (RXF 393 renal): 65.1 µM
TGI (RXF 393 renal): > 100 µM
GI50 (NCI-H226 lung): 17.2 µM
TGI (NCI-H226 lung): 37 µM
GI50 (SK-MEL-2 melanoma): 57.3 µM
TGI (SK-MEL-2 melanoma): > 100 µM
GI50 (HOP-92 NSCLC): 36.5 µM
TGI (HOP-92 NSCLC): 75.1 µM
GI50 (NCI/ADR-RES ovarian): > 100 µM
TGI (NCI/ADR-RES ovarian): > 100 µM

Cc1nn(C)c2ncnc(N/N=C/c3cccc(O)c3O)c12
GI50 (EKVX NSCLC): 2.78 µM
TGI (EKVX NSCLC): > 100 µM
GI50 (PC-3 prostate): 0.545 µM
TGI (PC-3 prostate): > 100 µM
GI50 (CCRF-CEM leukemia): 0.179 µM
TGI (CCRF-CEM leukemia): > 52.8 µM
GI50 (RXF 393 renal): 0.513 µM
TGI (RXF 393 renal): > 27.7 µM
GI50 (NCI-H226 lung): 3.69 µM
TGI (NCI-H226 lung): > 49.2 µM
GI50 (SK-MEL-2 melanoma): 2.98 µM
TGI (SK-MEL-2 melanoma): > 76.3 µM
GI50 (HOP-92 NSCLC): 0.747 µM
TGI (HOP-92 NSCLC): 13.8 µM
GI50 (NCI/ADR-RES ovarian): 0.336 µM
TGI (NCI/ADR-RES ovarian): > 55.8 µM

COC(=O)C(=O)C(C(=O)C(=O)Nc1ccccc1[N+](=O)[O-])c1nc2ccc([N+](=O)[O-])cc2[nH]c1=O (stereo not drawn)
TGI (EKVX NSCLC): > 100 µM
TGI (CCRF-CEM leukemia): > 100 µM
TGI (RXF 393 renal): > 100 µM
TGI (DMS 114 small cell lung): > 100 µM
TGI (NCI-H226 lung): > 100 µM
TGI (SK-MEL-2 melanoma): > 100 µM
TGI (DMS 273 small cell lung): > 100 µM
TGI (HOP-92 NSCLC): > 100 µM
